Data published in patent US7115629B2, “Carbamates derived from arylalkylamines” (Laboratorios S.A.L.V.A.T., S.A., priority 2000, dated 2006).

Assays:
M2 and M3 receptors = conditions: background statement; compounds exhibit M3 antagonist activity; cited from earlier work
human M3 receptors = target: T1, human M3 receptors (Homo sapiens, UniProt P20309); assay: Binding test to cloned human M3 muscarinic receptor ([3H]-NMS displacement, CHO-K1 membranes); conditions: membranes of CHO-K1 cells transfected with human M3; [3H]-NMS; mean of two independent experiments in duplicate; read-out: M3 (human M3 antagonist activity, binding affinity constant Ki)
T1 construct: purchased Receptor Biology; host or cells: CHO-K1 cells transfected with the human receptor (membranes)
T1 sequence (P20309 whole entry): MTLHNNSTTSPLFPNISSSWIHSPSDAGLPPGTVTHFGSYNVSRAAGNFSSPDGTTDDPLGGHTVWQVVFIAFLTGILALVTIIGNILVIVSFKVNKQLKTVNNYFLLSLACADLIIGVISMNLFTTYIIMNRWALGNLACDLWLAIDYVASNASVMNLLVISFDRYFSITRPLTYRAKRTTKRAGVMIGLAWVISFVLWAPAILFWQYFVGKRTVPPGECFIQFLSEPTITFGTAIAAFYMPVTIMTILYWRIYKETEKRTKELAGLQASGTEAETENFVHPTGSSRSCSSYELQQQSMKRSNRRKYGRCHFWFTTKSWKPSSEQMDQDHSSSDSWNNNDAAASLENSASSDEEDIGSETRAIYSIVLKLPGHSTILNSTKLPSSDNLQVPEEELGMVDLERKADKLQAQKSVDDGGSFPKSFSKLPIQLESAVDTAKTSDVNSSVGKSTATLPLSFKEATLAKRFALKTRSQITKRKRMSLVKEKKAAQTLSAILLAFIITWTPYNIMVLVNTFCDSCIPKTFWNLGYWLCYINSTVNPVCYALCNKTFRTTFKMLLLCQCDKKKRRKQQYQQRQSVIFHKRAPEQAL
Description: (§1) Membranes from CHO—K1 cells transfected with human M2 or M3 receptors (Receptor Biology) were used. The summarised experimental procedure for both receptors was the following: membranes (15–20 μg) were incubated with [^3H]-NMS (0.3–0.5 nM) for 60 min at 25° C., in presence or absence of the antagonists. Incubation was carried out in 96 wells polystyrene microplates in a total incubation volume of 0.2 mL of PBS pH 7.4. Non specific binding was determined in parallel assays in presence of atropine (5 μM). Samples were filtered through type GF/C glass fibre, preincubated with PEI 0.3%. Filters were washed 3–4 times with 50 mM Tris-HCl, 0.9% NaCl, pH 7.4 at 4° C., and dried at 50° C. for 45 min. Filter bound radioactivity was quantified by liquid scintillation counting.
(§2) For the calculation of the inhibition constant (Ki), displacement curves were analysed by non-linear regression (GraphPad Prism). Dissociation constant (KD) of [^3H]-NMS for each receptor was obtained through the saturation curves obtained in the same conditions as the experiments carried out with the antagonists.

human M2 receptors = target: T2, human M2 receptors (Homo sapiens, UniProt P08172); assay: Binding test to cloned human M2 muscarinic receptor ([3H]-NMS displacement, CHO-K1 membranes), reported as M2/M3 ratio; conditions: value greater than 1 indicates selectivity for the M3 receptor
T2 construct: purchased Receptor Biology; host or cells: CHO-K1 cells transfected with the human receptor (membranes)
T2 sequence (P08172 1-466): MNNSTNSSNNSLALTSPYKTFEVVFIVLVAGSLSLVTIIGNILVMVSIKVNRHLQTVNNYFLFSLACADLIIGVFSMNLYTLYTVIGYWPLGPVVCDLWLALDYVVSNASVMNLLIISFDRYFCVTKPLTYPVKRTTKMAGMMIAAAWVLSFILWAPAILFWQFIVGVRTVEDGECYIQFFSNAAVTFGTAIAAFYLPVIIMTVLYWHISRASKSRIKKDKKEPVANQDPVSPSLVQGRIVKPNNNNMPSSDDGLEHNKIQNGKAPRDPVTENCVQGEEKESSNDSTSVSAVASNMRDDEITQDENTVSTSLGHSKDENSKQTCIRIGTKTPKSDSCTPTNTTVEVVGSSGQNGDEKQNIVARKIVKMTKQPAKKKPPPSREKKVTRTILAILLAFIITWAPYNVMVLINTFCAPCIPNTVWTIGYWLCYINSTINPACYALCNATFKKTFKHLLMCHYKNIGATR
Description: as §1, §2

NC(=O)C(c1ccccc1)(c1ccccc1)[C@@H]1CCN(CCc2ccc3c(c2)CCO3)C1 [DARIFENACIN, darifenacin]
affinity towards the M2 receptor (M2 and M3 receptors): without any significant affinity

O=C(OC1CN2CCC1CC2)N1CCc2ccccc2[C@@H]1c1ccccc1 (stereo partly shown) [YM-905, reference compound]
Ki (human M3 receptors): 1.72 nM | M2/M3 (ratio between M2 and M3 receptor affinities) (human M2 receptors): 24 | affinity towards the M2 receptor (M2 and M3 receptors): without any significant affinity

O=C(OC1CN2CCC1CC2)N(Cc1cccc(OCc2ccccc2)c1)c1cccc(Cl)c1 (stereo not shown) [Example 48]
Ki (human M3 receptors): 0.43 nM | M2/M3 (ratio between M2 and M3 receptor affinities) (human M2 receptors): 24

O=C(OC1CN2CCC1CC2)N(Cc1ccc(Cl)c(Cl)c1)c1ccccc1 (stereo not shown) [Example 29]
Ki (human M3 receptors): 1.4 nM | M2/M3 (ratio between M2 and M3 receptor affinities) (human M2 receptors): 50

Cc1cccc(N(Cc2cc(F)cc(F)c2)C(=O)OC2CN3CCC2CC3)c1 (stereo not shown) [Example 30]
Ki (human M3 receptors): 0.09 nM | M2/M3 (ratio between M2 and M3 receptor affinities) (human M2 receptors): 74

O=C(OC1CN2CCC1CC2)N(Cc1ccc(F)c(F)c1F)c1cccc(Cl)c1 (stereo not shown) [Example 33]
Ki (human M3 receptors): 0.4 nM | M2/M3 (ratio between M2 and M3 receptor affinities) (human M2 receptors): 142

C[N+]12CCC(CC1)C(OC(=O)N(CC1CCCCC1)c1ccccc1F)C2.[I-] (stereo not shown) [Example 69]
Ki (human M3 receptors): 14.1 nM | M2/M3 (ratio between M2 and M3 receptor affinities) (human M2 receptors): 8

O=C(OC1CN2CCC1CC2)N(Cc1ccccc1)c1ccc(F)c(F)c1 (stereo not shown) [Example 9]
Ki (human M3 receptors): 19.6 nM | M2/M3 (ratio between M2 and M3 receptor affinities) (human M2 receptors): 9

O=C(OC1CN2CCC1CC2)N(Cc1cc(F)c(F)c(F)c1)c1cccc(F)c1 (stereo not shown) [Example 36]
Ki (human M3 receptors): 0.04 nM | M2/M3 (ratio between M2 and M3 receptor affinities) (human M2 receptors): 545

O=C(OC1CN2CCC1CC2)N(Cc1ccc2c(c1)OCO2)c1ccccc1 (stereo not shown) [Example 52]
Ki (human M3 receptors): 1.2 nM | M2/M3 (ratio between M2 and M3 receptor affinities) (human M2 receptors): 25

O=C(OC1CN2CCC1CC2)N(Cc1cc(F)c(F)c(F)c1)c1ccc(F)cc1 (stereo not shown) [Example 37]
Ki (human M3 receptors): 0.66 nM | M2/M3 (ratio between M2 and M3 receptor affinities) (human M2 receptors): 134

C[N+]12CCC(CC1)C(OC(=O)N(Cc1ccccc1)c1ccccc1F)C2.[I-] (stereo not shown) [Example 68]
Ki (human M3 receptors): 9.9 nM | M2/M3 (ratio between M2 and M3 receptor affinities) (human M2 receptors): 5

O=C(OC1CN2CCC1CC2)N(Cc1ccc(F)c(F)c1)c1ccccc1 (stereo not shown) [Example 26]
Ki (human M3 receptors): 0.1 nM | M2/M3 (ratio between M2 and M3 receptor affinities) (human M2 receptors): 50

NC(=O)c1ccc(CN(C(=O)OC2CN3CCC2CC3)c2ccccc2)cc1 (stereo not shown) [Example 44]
Ki (human M3 receptors): 7.7 nM | M2/M3 (ratio between M2 and M3 receptor affinities) (human M2 receptors): 6

CC(C)Oc1ccc(CN(C(=O)OC2CN3CCC2CC3)c2ccccc2)cc1 (stereo not shown) [Example 50]
Ki (human M3 receptors): 0.84 nM | M2/M3 (ratio between M2 and M3 receptor affinities) (human M2 receptors): 26

O=C(OC1CN2CCC1CC2)N(CC1CCC1)c1ccccc1 (stereo not shown) [Example 55]
Ki (human M3 receptors): 0.35 nM | M2/M3 (ratio between M2 and M3 receptor affinities) (human M2 receptors): 110

O=C(OC1CN2CCC1CC2)N(Cc1cc(F)ccc1F)c1ccccc1Cl (stereo not shown) [Example 24]
Ki (human M3 receptors): 0.48 nM | M2/M3 (ratio between M2 and M3 receptor affinities) (human M2 receptors): 33
